Results as given in patent US7135466B2 (Kirin Beer Kabushiki Kaisha, priority 1999, dated 2006).

biological target: T1, c-kit (Homo sapiens, UniProt P10721); assay: Inhibitory activity against c-kit autophosphorylation (MO7e cells, h-SCF); format: cell-based; conditions: MO7e cells, h-SCF 50 ng/ml; read-out: c-kit IC50
T1 construct: MO7e (human megakaryocytic leukemia cell line) which had been arrested for 20 hr; endogenous in cells; host or cells: MO7e human megakaryocytic leukemia cell line
Experimental: Inhibitory Activity Against c-kit Autophosphorylation
MO7e (human megakaryocytic leukemia cell line) which had been arrested for 20 hr was seeded into 96 well plates at an amount of 2×10^5 per well. A solution of a test compound in DMSO was added, and a reaction was then allowed to proceed for one hr. Thereafter, the cells were stimulated by 50 ng/ml of h-SCF for 5 min, followed by replacement with lysate buffer to solubilize the cells.
Next, the solubilized cell sap was transferred to a 96-well plate with an anti-phosphotyrosine antibody (PY-20) previously immobilized thereon, and a reaction was allowed to proceed. Thereafter, the cells were reacted with an anti-c-kit antibody (c-19, Santa Cruz) as a primary antibody and were labelled with GAR (anti-rabbit IgG, horseradish peroxidase, Amersham) as a secondary antibody. Color development was then carried out in a peroxidase color development kit (Sumitomo Bakelite Co., Ltd.), and the absorbance was measured at a wavelength of 450 nm.

T1 sequence (P10721 26-976): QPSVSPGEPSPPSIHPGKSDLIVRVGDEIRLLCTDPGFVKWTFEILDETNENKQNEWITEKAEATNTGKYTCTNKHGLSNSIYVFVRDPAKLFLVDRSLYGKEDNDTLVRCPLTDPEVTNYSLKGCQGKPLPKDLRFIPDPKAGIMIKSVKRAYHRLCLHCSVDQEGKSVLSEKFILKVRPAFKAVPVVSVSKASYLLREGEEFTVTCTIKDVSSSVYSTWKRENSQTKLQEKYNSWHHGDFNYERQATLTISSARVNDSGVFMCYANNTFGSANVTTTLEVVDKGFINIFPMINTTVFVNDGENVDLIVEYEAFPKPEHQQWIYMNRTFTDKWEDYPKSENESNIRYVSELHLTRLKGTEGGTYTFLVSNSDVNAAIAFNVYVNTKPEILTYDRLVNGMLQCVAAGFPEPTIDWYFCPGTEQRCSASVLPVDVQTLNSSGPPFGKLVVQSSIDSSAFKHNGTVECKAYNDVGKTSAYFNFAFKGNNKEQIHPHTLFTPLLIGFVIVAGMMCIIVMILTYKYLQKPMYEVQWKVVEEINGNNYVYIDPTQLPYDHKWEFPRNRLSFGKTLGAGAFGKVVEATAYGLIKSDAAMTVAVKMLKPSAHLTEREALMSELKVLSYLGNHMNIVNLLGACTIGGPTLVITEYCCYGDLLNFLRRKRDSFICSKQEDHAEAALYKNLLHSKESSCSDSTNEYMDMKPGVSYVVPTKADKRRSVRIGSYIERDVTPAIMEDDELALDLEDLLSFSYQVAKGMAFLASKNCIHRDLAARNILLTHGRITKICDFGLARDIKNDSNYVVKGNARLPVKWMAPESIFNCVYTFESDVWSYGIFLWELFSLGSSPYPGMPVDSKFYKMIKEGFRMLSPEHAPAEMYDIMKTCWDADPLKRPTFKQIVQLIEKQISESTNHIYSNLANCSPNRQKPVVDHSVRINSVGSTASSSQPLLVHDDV

IC50 [nM] | Compound
123 | COc1cc2nccc(Oc3cc(C)c(NC(=O)OCc4ccccc4)cc3C)c2cc1OC [Example 218, Benzyl N-{4-[(6,7-dimethoxy-4-quinolyl)oxy]-2,5-dimethylphenyl}carbamate]
101 | COc1cc2nccc(Oc3ccc(NC(=O)OC4CCCCC4)c(C)c3C)c2cc1OC [Example 222, Cyclohexyl N-{4-[(6,7-dimethoxy-4-quinolyl)oxy]-2,3-dimethylphenyl}carbamate]
372 | COc1cc2nccc(Oc3ccc(NC(=O)SCc4ccc(C)cc4)cc3)c2cc1OC [Example 107, 4-Methylbenzyl {4-[(6,7-dimethoxy-4-quinolyl)oxy]anilino}methanethioate]
750 | 4-Methylbenzyl {2-chloro-4-[(6,7-dimethoxy-4-quinazolinyl)oxy]anilino}methanethioate [Example 111]

same assay, conditions: MO7e cells, h-SCF stimulation; read-out: c-kit IC50

Compound | IC50 [nM]
COc1cc2nccc(Oc3ccc(SCCOc4ccccc4C)cc3)c2cc1OC [Example 817, 6,7-Dimethoxy-4-(4-{[2-(2-methylphenoxy)ethyl]sulfanyl}phenoxy)quinoline] | 195
COc1cc2nccc(Oc3ccc(SCCOc4ccccc4F)cc3)c2cc1OC [Example 822] | 451
COc1cc2nccc(Oc3ccc(NC(=S)NC(=O)c4cccc(Cl)c4)cc3Cl)c2cc1OC [Example 949] | 250
COc1cc2nccc(Oc3ccc(SCCOc4ccc(C)cc4C)cc3)c2cc1OC [Example 826, 4-(4-{[2-(2,4-Dimethylphenoxy)ethyl]sulfanyl}phenoxy)-6,7-dimethoxyquinoline] | 170
COc1cc2nccc(Oc3ccc(SCCOc4cccc(C)c4)cc3)c2cc1OC [Example 823, 6,7-Dimethoxy-4-(4-{[2-(3-methylphenoxy)ethyl]sulfanyl}phenoxy)quinoline] | 236
COc1ccc(C(=O)NC(=S)Nc2ccc(Oc3ccnc4cc(OC)c(OC)cc34)c(F)c2)cc1 [Example 976, N-{4-[(6,7-Dimethoxy-4-quinolyl)oxy]-3-fluorophenyl}-N′-(4-methoxybenzoyl)thiourea] | 788
COc1cc2nccc(Oc3ccc(NC(=S)NC(=O)CCC4CCCC4)c(F)c3)c2cc1OC [Example 1027, N-(3-Cyclopentylpropanoyl)-N′-{4-[(6,7-dimethoxy-4-quinolyl)oxy]-2-fluorophenyl}thiourea] | 161
COc1cc2nccc(Oc3ccc(NCCOc4cccc(C)c4)cc3)c2cc1OC [Example 871, N-{4-[(6,7-Dimethoxy-4-quinolyl)oxy]phenyl}-N-[2-(3-methylphenoxy)ethyl]amine] | 43
COc1cc2nccc(Oc3ccc(SCCCOc4ccccc4F)cc3)c2cc1OC [Example 842, 4-(4-{[3-(2-Fluorophenoxy)propyl]sulfanyl}phenoxy)-6,7-dimethoxyquinoline] | 127
COc1cc2nccc(Oc3ccc(NC(=S)NC(=O)c4ccc5c(c4)OCO5)cc3F)c2cc1OC [Example 1145, N-(1,3-Benzodioxol-5-ylcarbonyl)-N′-{4-[(6,7-dimethoxy-4-quinolyl)oxy]-3-fluorophenyl}thiourea] | 548
COc1cc2nccc(Oc3ccc(SCCOc4ccccc4Cl)cc3)c2cc1OC [Example 819, 4-(4-{[2-(2-Chlorophenoxy)ethyl]sulfanyl}phenoxy)-6,7-dimethoxyquinoline] | 212
COc1cc2nccc(Oc3ccc(NC(=S)NC(=O)c4ccccc4C)cc3F)c2cc1OC [Example 912, N-{4-[(6,7-Dimethoxy-4-quinolyl)oxy]-3-fluorophenyl}-N′-(2-methylbenzoyl)thiourea] | 497
COc1cc2nccc(Oc3ccc(SCCOc4ccc(Cl)cc4)cc3)c2cc1OC [Example 818, 4-(4-{[2-(4-Chlorophenoxy)ethyl]sulfanyl}phenoxy)-6,7-dimethoxyquinoline] | 205
COc1cc2nccc(Oc3ccc(NC(=S)NC(=O)c4cc(C)oc4C)cc3F)c2cc1OC [Example 1039, N-{4-[(6,7-Dimethoxy-4-quinolyl)oxy]-3-fluorophenyl}-N′-[(2,5-dimethyl-3-furyl)carbonyl]thiourea] | 556
COc1cc2nccc(Oc3ccc(NC(=S)NC(=O)c4ccc([N+](=O)[O-])cc4)cc3C)c2cc1OC [Example 1108, N-{4-[(6,7-Dimethoxy-4-quinolyl)oxy]-3-methylphenyl}-N′-(4-nitrobenzoyl)thiourea] | 962

Second part, the compound after the results:

IC50 [nM] | Compound
136 | COc1cc2nccc(Oc3ccc(NC(=S)NC(=O)C4CCCC4)cc3)c2cc1OC [Example 1061, N-Cyclopentylcarbonyl-N′-{4-[(6,7-dimethoxy-4-quinolyl)oxy]phenyl}thiourea]
652 | COc1cc2nccc(Oc3ccc(NC(=S)NC(=O)CCc4ccccc4)c(F)c3)c2cc1OC [Example 1026, N-{4-[(6,7-Dimethoxy-4-quinolyl)oxy]-2-fluorophenyl}-N′-(3-phenylpropanoyl)thiourea]
357 | COc1cc2nccc(Oc3ccc(NC(=S)NC(=O)c4ccc(Cl)cc4Cl)cc3)c2cc1OC [Example 1008, N-(2,4-Dichlorobenzoyl)-N′-{4-[(6,7-dimethoxy-4-quinolyl)oxy]phenyl}thiourea]
493 | COc1cccc(C(=O)NC(=S)Nc2ccc(Oc3ccnc4cc(OC)c(OC)cc34)cc2)c1 [Example 933, N-{4-[(6,7-Dimethoxy-4-quinolyl)oxy]phenyl}-N′-(3-methoxybenzoyl)thiourea]
75 | COc1cc2nccc(Oc3ccc(NCCOc4cccc(Cl)c4)cc3)c2cc1OC [Example 860, N-[2-(3-Chlorophenoxy)ethyl]-N-{4-[(6,7-dimethoxy-4-quinolyl)oxy]phenyl}amine]
121 | COc1cc2nccc(Oc3ccc(NCCOc4cc(Cl)ccc4Cl)cc3)c2cc1OC [Example 865, N-[2-(2,5-Dichlorophenoxy)ethyl]-N-{4-[(6,7-dimethoxy-4-quinolyl)oxy]phenyl}amine]
440 | COc1cc2nccc(Oc3ccc(NC(=S)NC(=O)c4ccccc4C(F)(F)F)cc3Cl)c2cc1OC [Example 924, N-{3-Chloro-4-[(6,7-dimethoxy-4-quinolyl)oxy]phenyl}-N′-[2-(trifluoromethyl)benzoyl]thiourea]
102 | COc1cc2nccc(Oc3ccc(NCCOc4cc(C)cc(C)c4)cc3)c2cc1OC [Example 858, N-{4-[(6,7-Dimethoxy-4-quinolyl)oxy]-phenyl}-N-[2-(3,5-dimethylphenoxy)ethyl]amine]
938 | COc1cc2nccc(Oc3ccc(NC(=S)NC(=O)c4ccccc4)cc3)c2cc1OC [Example 897, N-Benzoyl-N′-{4-[(6,7-dimethoxy-4-quinolyl)oxy]phenyl}thiourea]

same assay, conditions: Mo7e, figure in parentheses in −( ); at 1000 nM

Compound | inhibition at 1 µM [%]
COc1cc2nccc(Oc3ccc(NC(=S)NC(=O)c4ccccc4C)c(C)c3)c2cc1OC [Example 1090, N-{4-[(6,7-Dimethoxy-4-quinolyl)oxy]-2-methylphenyl}-N′-(2-methylbenzoyl)thiourea] | 30
COc1cc2nccc(Oc3ccc(NC(=S)NC(=O)c4ccc(C)cc4)c(F)c3)c2cc1OC [Example 964, N-{4-[(6,7-Dimethoxy-4-quinolyl)oxy]-2-fluorophenyl}-N′-(4-methylbenzoyl)thiourea] | 46
CCCCC(CCCC)OC(=O)Nc1ccc(Oc2ncnc3cc(OC)c(OC)cc23)cc1Cl [Example 372, 1-Butylpentyl N-{2-chloro-4-[(6,7-dimethoxy-4-quinazolinyl)oxy]phenyl}carbamate] | 14
COc1cc2nccc(Oc3ccc(NC(=S)NC(=O)c4ccc(Br)cc4)cc3F)c2cc1OC [Example 973, N-(4-Bromobenzoyl)-N′-{4-[(6,7-dimethoxy-4-quinolyl)oxy]-3-fluorophenyl}thiourea] | 0

More lines, now with the values ahead:

inhibition at 1 µM [%] | Compound
32 | COc1cc2nccc(Oc3ccc(NC(=S)NC(=O)c4cccc(C)c4)c([N+](=O)[O-])c3)c2cc1OC [Example 953, N-{4-[(6,7-Dimethoxy-4-quinolyl)oxy]-2-nitrophenyl}-N′-(3-methylbenzoyl)thiourea]
0 | COc1cc2nccc(Oc3ccc(NC(=S)NC(=O)c4ccc(C)cc4)c(C)c3C)c2cc1OC [Example 1080, N-{4-[(6,7-Dimethoxy-4-quinolyl)oxy]-2,3-dimethylphenyl}-N′-(4-methylbenzoyl)thiourea]
34 | COc1cc2nccc(Oc3ccc(NC(=S)NC(=O)c4ccc(I)cc4)cc3F)c2cc1OC [Example 974, N-{4-[(6,7-Dimethoxy-4-quinolyl)oxy]-3-fluorophenyl}-N′-(4-iodobenzoyl)thiourea]
26 | COc1cc2nccc(Oc3ccc(S(=O)(=O)CCOc4ccc(C)c(C)c4)cc3)c2cc1OC [Example 833, 4-[(6,7-Dimethoxy-4-quinolyl)oxy]phenyl [2-(3,4-dimethylphenoxy)ethyl]sulfone]
46 | COc1cc2nccc(Oc3ccc(NC(=S)NC(=O)c4ccccc4C)c(F)c3)c2cc1OC [Example 904, N-{4-[(6,7-Dimethoxy-4-quinolyl)oxy]-2-fluorophenyl}-N′-(2-methylbenzoyl)thiourea]
38 | COc1cc2ncnc(Oc3ccc(NC(=S)NC(=O)c4ccc(F)cc4F)cc3)c2cc1OC [Example 1021, N-(2,4-Difluorobenzoyl)-N′-{4-[(6,7-dimethoxy-4-quinazolinyl)oxy]phenyl}thiourea]

same assay, conditions: figure in parentheses in −( ); at 1000 nM; 1 µM

c-kit inhibition (%) at 1000 nM | Compound
−(27) % | COc1cc2nccc(Oc3ccc(NC(=S)NC(=O)Cc4ccccc4)c(C)c3C)c2cc1OC [Example 1206, N-{4-[(6,7-Dimethoxy-4-quinolyl)oxy]-2,3-dimethylphenyl}-N′-(2-phenylacetyl)thiourea]
